In patent US20080287396A1, “Phosphonated Fluoroquinolones, Antibacterial Analogs Thereof, and Methods for the Prevention and Treatment of Bone and Joint Infections” (TARGANTA THERAPEUTICA INC., priority 2005, published 2008):
Converted amounts (≈) assume the structure as drawn.

Columns and labels:
[1] = Bone powder binding, LC/MS detection; conditions: 100 μM compound, Tris-HCl pH 7, 0.15M NaCl, ground rat tibia bone, 10 min
Description: The ability of the example molecules to bind to bone powder was established in two parallel fashions, using either LC/MS or fluorometric detection. For LC/MS detection, a stock solution (5 mM) of the compound to be tested was added to 0.1M Tris-HCl buffer pH 7, 0.15M NaCl to reach a final concentration of 100 μM. Triplicate samples (1 mL) of the compound solutions were intensively shaken for 10 min with or without 25 mg of fresh or 20 mg of vacuum dried ground rat tibia bone. The samples were then centrifuged for 15 min at 10 000 g. The presence of unbound compound was measured by injection of 30 μL of each of the supernatants into an Agilent 1100™ LC/UV system. For fluorometric detection, an individual compound was dissolved in PBS or water (compound 52) and resuspended at a concentration of 1 mg/ml in a slurry of bone meal powder (Now Foods, Bloomingdale, Ill., USA) in PBS at 10 mg/ml. The suspension of drug/prodrug in bone meal powder was incubated at 37° C. for 1 h to allow for binding, and centrifuged at 13 000 rpm for 2 min, before recovering the supernatant. The bone meal powder pellet was then washed three times with 1 ml of PBS. All supernatants were saved and assessed for fluoroquinolone content by fluorescence measurements at excitation/emission wavelengths of 280/465 nm. The amount of fluoroquinolone was determined from standard curves generated for each experiment. Amount of drug/prodrug bound to bone powder was deduced from the difference between the input amount (typically 1 mg) and the amount recovered in the supernatants after binding. In all binding experiments, >99% of input drug was recovered in the supernatant for the parent drugs.

[2] = Regenerated moxifloxacin in infected and uninfected rat tibiae; format: in vivo; conditions: 52 IV 15.8 or 31.6 mg/kg one day after surgery; tibiae one and six days after treatment
Description: Rats were infected as in Example 7, and treated IV with either 15.8 or 31.6 mg/kg of body weight of prodrug 52 one day after surgery. One day and six days following the treatment, the tibiae were collected as described previously. The levels of regenerated moxifloxacin 3 were determined as follows.
The experimentally obtained whole tibia was ground to a powder which was suspended in 5% formic acid in methanol (500 mg/1.6 ml) to extract the released moxifloxacin 3. The mixture was vortexed for 10 minutes and centrifuged for 20 minutes at 1250 g.
Standards (from 5 to 1000 ng), QCs (25 and 250 ng) and blanks were prepared (in duplicate) as follows: to blank tibia powder (50 mg, not dried) was added the 5% formic acid solution in methanol (160 μl) and the spiking solution of moxifloxacin 3 in water (10 μl). The mixtures were vortexed for 10 minutes and centrifuged for 10 minutes at 2500 g. The supernatant was transferred into another vial, spiked with the internal standard, vortexed and evaporated to dryness. In each case, the resulting dried residues (samples, standards, QCs and blanks) were reconstituted in 200 μl of water, vortexed for 15 min and centrifuged for 15 min at 10 000 g. The solution (20 μl) was injected into the LC/MS. The LC/MS method is as described in Example 6.

[3] = tested on: S. aureus strains ATCC13709 and RN4220; test: microbe, parasite or virus in culture; format: cell-based; conditions: Staphylococcus aureus, ATCC13709; CAMHB, 37° C., 18 h; data not shown; read-out: minimum inhibitory concentration (MIC)
Description: Susceptibility of S. aureus strains ATCC13709 and RN4220 to the commercial antibiotics and synthesized compounds was determined by following the guidelines set by the Clinical and Laboratory Standards Institute (formerly the National Committee for Clinical Laboratory Standards) (M26-A). Compounds were diluted two-fold serially in DMSO and transferred to cation-adjusted Mueller Hinton broth (CAMHB; Becton Dickinson). 50 μL of compounds diluted in CAMHB was mixed with 100 μL of bacteria diluted in CAMHB in 96-well microtiter plates. The final number of micro-organisms in the assay was 5×10^5 c.f.u. per mL and the final concentration of DMSO in the assay was 1.25%. Assays were set up in duplicate and incubated at 37° C. for 18 h. The concentration of compound that inhibited visible growth was reported as the minimum inhibitory concentration (MIC).

Hela cells = test: Cytotoxicity assay (MTS reduction); format: cell-based; conditions: concentrations up to 100 μM, 18 h, MTS reagent; data not shown
Description: Selected compounds were also tested for their ability to inhibit growth of mammalian cells so as to ascertain levels of cytotoxicity to the mammalian host, via an assay measuring the biological reduction of the inner salt of (3-(4,5-dimethylthiazol-2-yl)-5-(3-carboxymethoxyphenyl)-2-(4-sulfophenyl)-2H-tetrazolium (MTS reagent). Assays were performed in 96-well microtiter plates. Briefly, compounds at 100, 50, 25, and 12.5 μM concentrations were incubated with 2×10^4 Hela cells per well in Dulbecco's Modified Eagle Medium (Invitrogen Corporation) containing 1% Bovine Growth Serum (HyClone) for 18 h at 37° C. under 5% CO2.

S. aureus ATCC 13709 = test: Combination with Rifampicin in treatment of osteomyelitis induced in rats; format: in vivo, rat; conditions: 34 mg/kg 54 IV + 20 mg/kg Rifampicin s.c. on days 14, 15, 16, 17 after surgery; titer on day 43
Description: The cells were washed twice with phosphate-buffered saline (PBS) and resuspended in BHIB supplemented with 10% (vol./vol.) fetal bovine serum at a density of approximately 10^10 colony forming units (CFU)/ml (based upon turbidimetry). The suspension was aliquoted and a portion was used to check the CFU count. The culture was stored frozen (−80° C.) and was used without subculture. For use as an inoculum the culture was thawed, diluted in PBS and kept in an ice bath until it was used.
Animals were infected as described by O'Reilly et al. (Antimicrobial Agents and Chemotherapy (1992), 36(12): 2693-97) to generate the bone infection. Female CD rats (age, 57 to 70 days; n=5/group; Charles River, St-Constant, Canada) were anaesthetized by isofluorane before and during the surgery. Following complete induction of anesthesia, the rat was placed ventral side up and hair was shaved from the surgical site. The skin over the leg was cleaned and disinfected (proviodine-ethanol 70%). A longitudinal incision below the knee joint was made in the sagital plane. The incision was made over the bone below the “knee joint” (tibia head or condyle) but not completely extending to the ankle. A high speed drill fitted with a 2 mm bulb bit was used to drill a hole into the medullar cavity of the tibia. […]

Row | Binding to bone (%) LC/MS [1] | level of regenerated moxifloxacin 3, uninfected versus infected tibiae [2] | Structure (SMILES) | MIC [3] | cytotoxicity (Hela cells) | bacterial titer in the infected tibiae, combination with Rifampicin (S. aureus ATCC 13709)
1 | 94.2 ± 3.2% | not significantly different | COc1c(N2C[C@@H]3CCCN[C@@H]3C2)c(F)cc2c(=O)c(C(=O)OCC(=O)NC(P(=O)(O)O)P(=O)(O)O)cn(C3CC3)c12 [Compound 52, (1,1-Bisphosphonomethylcarbamoyl)methyl 1-cyclopropyl-6-fluoro-1,4-dihydro-7-((4aS,7aS)-octahydropyrrolo[3,4-b]pyridin-6-yl)-8-methoxy-4-oxoquinoline-3-carboxylate] |  |  | 
2 |  |  | COc1c(N2CCNC(C)C2)c(F)cc2c(=O)c(C(=O)OCC(=O)NC(P(=O)(O)O)P(=O)(O)O)cn(C3CC3)c12 (centres unmarked) [Compound 54, (1,1-Bisphosphonomethylcarbamoyl)methyl 7-(3-methylpiperazin-1-yl)-1-cyclopropyl-6-fluoro-1,4-dihydro-8-methoxy-4-oxoquinoline-3-carboxylate] | 4 to 16 µg/mL (≈ 6.6 to 26.4 µM) | no signs of any cytotoxicity | statistically significant decrease (p=0.007)
